The values below come from article PMC5297413, “C-terminus Methionene Specifically Involved in Binding Corn Odorants to Odorant Binding Protein4 in Macrocentrus cingulum” (Frontiers in Physiology, 2017).

Assay [1] addresses T1, McinOBP4-Wt (Macrocentrus cingulum, UniProt A0A1S6PU99). Nature of the assay: Competitive binding assay with 1-NPN as fluorescent reporter, McinOBP4-Wt. How it is done: (§1) One cm light path fluorimeter quartz cuvette was used on a FluoroMax-4 (Horiba Scientific, USA) spectrophotometer at room temperature for fluorescence spectra recording and excitation wavelength of 337 nm was chosen and 300–500 nm for the emission with a 5 nm slit width. Spectra were recorded with 2 μM McinOBP4 in 50 mM Tris-HCl of different pH value, while ligands were added as 1 mM methanol solutions.
The probe was excited at 337 nm and emission spectra were recorded between 300 and 500 nm.
(§2) It was assumed that McinOBP4 was 100% active and the protein-ligand binding was 1:1 ratio at saturation. The obtained data were processed with Graphpad Prism software (Graphpad Software, Inc.) and using a software package SPSS Version 16 (http://www.spss.com). The maximum intensity values of emission were plotted against the 1-NPN concentration for the KD determination, and the values of intensity were used for the evaluation the bound ligands. The curve was linearized using Scatchard Plots to verify the confidence of KD.

The next assay deals with T2, McinOBP4-M1 (Macrocentrus cingulum, UniProt A0A1S6PU99).
T2 sequence (A0A1S6PU99 23-134): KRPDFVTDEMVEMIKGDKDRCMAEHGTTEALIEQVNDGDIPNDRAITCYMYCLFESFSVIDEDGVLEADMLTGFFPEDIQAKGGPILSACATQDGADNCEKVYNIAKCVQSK
Nature of the assay: Fluorescence binding of 1-NPN to C-terminal truncated mutant McinOBP4-M1. As for the experimental part:
(§3) The C-terminal tail truncated form of the McinOBP4 was obtained by removing the last 8 amino acids and inserting a stop codon after Leu112. The McinOBP4-Wt/pGEM-T Easy construct was used as a template. A pair of primer was designed manually and as listed sense primer 5′- […] -3′ (underlined with BamHI) and antisense primer, 5′- […] -3′ (underlined with HindIII) where 113th position residues used as a stop codon. The mutant M2 (Met119) was prepared along with the pair of primer as sense primer 5′- […] -3′ (under lined with BamHI), and antisense primere 5′- […] -3′ (under lined with HindIII). […]
(§4) One cm light path fluorimeter quartz cuvette was used on a FluoroMax-4 (Horiba Scientific, USA) spectrophotometer at room temperature for fluorescence spectra recording and excitation wavelength of 337 nm was chosen and 300–500 nm for the emission with a 5 nm slit width. Spectra were recorded with 2 μM McinOBP4 in 50 mM Tris-HCl of different pH value, while ligands were added as 1 mM methanol solutions. […]
(§5) It was assumed that McinOBP4 was 100% active and the protein-ligand binding was 1:1 ratio at saturation. […] IC50 for other corn odorants were calculated using with Microsoft excel 2010, and the equation, KD = [IC50]/[1+(1–NPN)/K1−NPN] was used for the KD values calculation. […]

Assay [2] addresses T1, McinOBP4-Wt. Nature of the assay: Fluorescence binding of 1-NPN to McinOBP4-Wt. As for the experimental part: as §1
To measure the affinity of the fluorescence ligand N-phenyl-1-naphthylamine (1-NPN) to McinOBP4-wt and mutants, a 2 μM solution of the protein in 50 mM Tris-HCl, pH 7.4, was titrated with aliquots of 1 mM ligand in high-performance liquid chromatography (HPLC) purity grade methanol to final concentrations of 2–20 μM. The probe was excited at 337 nm and emission spectra were recorded between 300 and 500 nm. While the other competitor were measured in competitive binding assays, where 1-NPN using as the fluorescent reporter at 2 μM concentration and each competitor (odorants) over concentration ranges 2–14 μM, depending on the different odorants.
as §2, with “KD. IC50 for other corn odorants were calculated using with Microsoft excel 2010, and the equation, KD = [IC50]/[1+(1–NPN)/K1−NPN] was used for the KD values calculation. In this equation [IC50] stands for the ligand concentration where the ligand quenching the fluorescence intensity of 1-NPN to 50%, [1-NPN] and K1−NPN mean free 1-NPN concentration and McinOBP4/1-NPN complex KD values, respectively (Campanacci et al., [2001]; Ban et al., [2002]).” for “KD.”

Assay [3] has as its target T3, McinOBP4-M2 (Macrocentrus cingulum, UniProt A0A1S6PU99, M141L).
T3 sequence (A0A1S6PU99 23-142 M141L): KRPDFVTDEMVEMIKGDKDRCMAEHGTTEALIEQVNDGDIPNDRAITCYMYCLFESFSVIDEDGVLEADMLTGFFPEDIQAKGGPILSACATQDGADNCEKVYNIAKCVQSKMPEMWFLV
As to the kind of experiment: Fluorescence binding of 1-NPN to mutant McinOBP4-M2 (Met119 replaced by Leu). Particulars: McinOBP4-M2, pH 7.4; read-out: Dissociation constant (KD) of 1-NPN. How it is done:
as §3, §4, §5

The target of assay [4] is T3, McinOBP4-M2. Nature of the assay: Competitive binding assay with 1-NPN as fluorescent reporter, McinOBP4-M2. The following applies: compared to wild type and M1.
Setting [5] is: recombinant McinOBP4-Wt, pH = 7.4, calculated from IC50, read-out: KD.
Setting [6] is: recombinant McinOBP4-Wt, pH = 7.4, displacement of 1-NPN, read-out: IC50.
The mark [7] stands for this setting: McinOBP4-Wt, pH 7.4, read-out: KD.

Entries after “also recorded” stand apart in the source; their conditions may differ. Read-outs that look alike come from different tables or passages of the source.

T1 sequence (A0A1S6PU99 entry or part of it): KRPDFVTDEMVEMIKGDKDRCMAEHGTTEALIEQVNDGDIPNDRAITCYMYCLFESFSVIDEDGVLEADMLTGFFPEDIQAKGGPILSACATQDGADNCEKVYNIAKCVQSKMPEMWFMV

As usually defined, the Kd is the concentration at which binding is half-saturated. The term IC50 denotes the point on the concentration scale where inhibition reaches its midpoint. Consider `C=C1CC/C=C(\C)CC[C@@H]2[C@@H]1CC2(C)C` (relative stereo) [Trans Caryophelle], for which the Kd on McinOBP4-Wt [1] (setting [5]) was 19.1 µM. Moreover, the 50% inhibitory concentration (IC50) on McinOBP4-Wt [1] (setting [6]) was determined as 24.5 µM.

For `c1ccc(Nc2cccc3ccccc23)cc1` [1-NPN, N-phenyl-1-naphthylamine], the “Affinity of 1-NPN in basic condition” value was “increase in basic condition; also recorded: increase in affinity” on McinOBP4-M1 (McinOBP4-M1, basic condition) and “increase in basic condition; also recorded: increase in affinity” at McinOBP4-Wt [2] (basic condition). The Kd on McinOBP4-M1 (McinOBP4-M1, pH 7.4, read-out: Dissociation constant (KD) of 1-NPN) amounted to 6.99 ± 0.59 µM; at McinOBP4-Wt [2] (pH 7.4, read-out: Dissociation constant (KD) of 1-NPN) it was 5.69 ± 0.83 µM; at McinOBP4-M2 [3], 8.85 ± 0.63 µM. For the same compound, the “Affinity of 1-NPN in acidic condition” value at McinOBP4-Wt [2] (acidic condition (pH 4.4)) is given as “did not observe significant loss of binding activity”.

For `C=CC(O)CC` (centres unmarked) [1-Penten-3-ol], the Kd on McinOBP4-Wt [1] (setting [5]) was 19.8 µM. In addition, the IC50 at McinOBP4-Wt [1] (setting [6]) was found to be 25.4 µM.

With `CCCCC(C)CC(C)C` (centres unmarked) [2,4 Dimethyl Octane], the Kd on McinOBP4-Wt [1] (setting [5]) is 36.6 µM. On McinOBP4-Wt [1] (setting [6]), the IC50 was determined as 47 µM.

With `CCCCCc1ccco1` [2-Pentylfuran], at McinOBP4-Wt [1] (setting [5]), the equilibrium dissociation constant (Kd) is 15.7 µM. In addition, the concentration for half-maximal inhibition (IC50) on McinOBP4-Wt [1] (setting [6]) stood at 20.1 µM.

At McinOBP4-Wt [1], `CC/C=C\CCO` [Cis-3-Hexen-1-ol] registered an IC50 of 19.9 µM and a Kd of 15.5 µM.

On to `C=C/C(C)=C/C/C=C(\C)CCC=C(C)C` [Farnsene], for which, on McinOBP4-Wt [1] (setting [5]), the dissociation constant Kd was 21.3 µM. For the same compound, the IC50 on McinOBP4-Wt [1] (setting [6]) was determined as 27.4 µM.

In the case of `CCCCCCC=O` [Heptanal], at McinOBP4-Wt [1] (setting [5]), the equilibrium dissociation constant (Kd) was 13 µM. For the same compound, at McinOBP4-Wt [1] (setting [6]), the half-maximal inhibitory concentration (IC50) turned out to be 16.8 µM.

On to `C=C(C)[C@H]1CC=C(C)CC1` [Limonene], for which the results for the Kd at McinOBP4-Wt [1] (setting [7]) and at McinOBP4-Wt [1] (setting [5]) were 4.12 ± 0.7 µM and 4.12 µM, respectively. Also, the IC50 on McinOBP4-Wt [1] (setting [6]) came out at 5.29 µM. Besides, at McinOBP4-M2 [4], the “Binding affinity to McinOBP4-M2 compared to wild type and first mutant” value is “lower binding affinities; also recorded: much weaker”.

In the case of `C=CC(C)(O)CCC=C(C)C` (centres unmarked) [Linalool], at McinOBP4-Wt [1], the concentration for half-maximal inhibition (IC50) worked out at 12.3 µM and the equilibrium dissociation constant (Kd) is 9.61 ± 0.23 µM. Besides, at McinOBP4-M2 [4], the “Binding affinity to McinOBP4-M2 compared to wild type and first mutant” value was “lower binding affinities; also recorded: much weaker”.

Regarding `C=CC(=C)CCC=C(C)C` [Myrcene], the Kd on McinOBP4-Wt [1] (setting [5]) is 17.9 µM. On McinOBP4-Wt [1] (setting [6]), the half-inhibitory concentration (IC50) stood at 23 µM.

For the compound `CCCCCCCCC=O` [Nonanal], at McinOBP4-Wt [1] (setting [5]), the dissociation constant Kd is 12.5 µM. In addition, the IC50 on McinOBP4-Wt [1] (setting [6]) is 16.1 µM.

For the compound `CCC/C=C/C=O` [Trans-2-Hexen-1-al], on McinOBP4-Wt [1], the IC50 stood at 16.4 µM and binding was characterised by a dissociation constant (Kd) of 12.8 µM.

For `CCC/C=C/CO` [Trans-2-Hexen-1-ol], on McinOBP4-Wt [1], the IC50 was 19.8 µM and the Kd stood at 15.4 µM.

For `CCCCCC/C=C/C=O` [Trans-2-Nonenal], the Kd at McinOBP4-Wt [1] (setting [5]) was 12.8 µM. Further, on McinOBP4-Wt [1] (setting [6]), the IC50 was found to be 16.5 µM.

`CCCCC/C=C/C=O` [Trans-2-Octenal]: the results for the dissociation constant Kd on McinOBP4-Wt [1] (setting [7]) and on McinOBP4-Wt [1] (setting [5]) were 11.8 ± 0.57 µM and 11.9 µM, respectively. Besides, the half-maximal inhibitory concentration (IC50) at McinOBP4-Wt [1] (setting [6]) was 15.3 µM. Besides, the “Binding affinity to McinOBP4-M2 compared to wild type and first mutant” value on McinOBP4-M2 [4] (listed as trans-2-octanal) is recorded as “lower binding affinities; also recorded: much weaker”.

As to `CC/C=C/CCOC(C)=O` [Trans-3-Hexen-1-ol-Acetate], the Kd was 6.99 ± 1.23 µM on McinOBP4-Wt [1] (setting [7]) and 6.99 µM on McinOBP4-Wt [1] (setting [5]). The IC50 at McinOBP4-Wt [1] (setting [6]) is 8.98 µM. The “Binding affinity to McinOBP4-M2 compared to wild type and first mutant” value at McinOBP4-M2 [4] is “lower binding affinities; also recorded: much weaker”.

At McinOBP4-Wt [1], `CC(=O)/C=C/C1C(C)=CCCC1(C)C` (stereo not drawn) [α-Ionone] yielded a concentration for half-maximal inhibition (IC50) of 24.1 µM and a Kd of 18.7 µM.

Take `CC1=CCC2CC1C2(C)C` (stereo not drawn) [α-Pinene]: on McinOBP4-Wt [1], the half-inhibitory concentration (IC50) was found to be 34.2 µM and the dissociation constant Kd was 26.6 µM.

At McinOBP4-Wt [1], `CC(=O)/C=C/C1=C(C)CCCC1(C)C` [β-Ionone] gave an IC50 of 15.1 µM and a Kd of 11.8 µM. The “Binding affinity to McinOBP4-M2 compared to wild type and first mutant” value on McinOBP4-M2 [4] was “lower binding affinities; also recorded: much weaker”.

On McinOBP4-Wt [1], `C=C1CCC2CC1C2(C)C` (stereo not drawn) [β-Pinene] showed a half-maximal inhibitory concentration (IC50) of 18.8 µM and a dissociation constant Kd of 14.7 µM.

For the compound Hexenal, at McinOBP4-Wt [1] (setting [5]), the Kd was 26.9 µM. The half-maximal inhibitory concentration (IC50) at McinOBP4-Wt [1] (setting [6]) is 34.6 µM.
